Publication PMC3645702, “Protein Tyrosine Nitration and Thiol Oxidation by Peroxynitrite—Strategies to Prevent These Oxidative Modifications” (International Journal of Molecular Sciences, 2013)
pEC50: −log10 of the molar value.

What was measured:
[1] = target: T1, alcohol dehydrogenase (ADH) (Saccharomyces cerevisiae, UniProt P00330); assay: NADH formation at […] nm; format: biochemical
T1 construct: gene ADH1
T1 sequence (P00330 2-348): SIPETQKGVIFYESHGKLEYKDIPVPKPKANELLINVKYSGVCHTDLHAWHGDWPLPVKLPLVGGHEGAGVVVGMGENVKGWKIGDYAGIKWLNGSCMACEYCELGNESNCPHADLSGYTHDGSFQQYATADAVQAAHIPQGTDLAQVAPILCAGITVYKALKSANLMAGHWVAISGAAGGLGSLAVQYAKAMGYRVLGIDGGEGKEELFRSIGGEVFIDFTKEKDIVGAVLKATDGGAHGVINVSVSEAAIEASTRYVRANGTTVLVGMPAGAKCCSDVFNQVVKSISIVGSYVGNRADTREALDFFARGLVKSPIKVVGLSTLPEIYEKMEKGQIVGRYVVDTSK

[2] = target: T2, human prostacyclin synthase (PGIS), microsomal, partially purified (Homo sapiens, UniProt Q16647); assay: 3-nitrotyrosine formation, Western blot and HPLC after pronase; format: biochemical
T2 construct: gene PTGIS; overexpressed in Sf21 insect cells
T2 sequence (Q16647 1-500): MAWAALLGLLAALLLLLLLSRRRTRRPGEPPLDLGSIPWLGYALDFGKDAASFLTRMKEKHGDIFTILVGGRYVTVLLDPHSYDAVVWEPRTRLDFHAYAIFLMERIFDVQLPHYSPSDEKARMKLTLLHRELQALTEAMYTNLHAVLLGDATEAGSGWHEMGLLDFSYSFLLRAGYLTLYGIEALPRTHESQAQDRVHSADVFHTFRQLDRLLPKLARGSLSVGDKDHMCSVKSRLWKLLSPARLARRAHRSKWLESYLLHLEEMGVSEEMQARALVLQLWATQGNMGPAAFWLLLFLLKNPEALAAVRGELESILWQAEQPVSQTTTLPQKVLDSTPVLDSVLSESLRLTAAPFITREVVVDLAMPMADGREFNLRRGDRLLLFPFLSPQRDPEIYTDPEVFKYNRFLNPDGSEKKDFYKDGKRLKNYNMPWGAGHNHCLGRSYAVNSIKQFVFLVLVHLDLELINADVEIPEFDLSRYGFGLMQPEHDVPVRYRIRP
From the text: 3-nitrotyrosine formation, Western blot and HPLC after pronase on human prostacyclin synthase (PGIS), microsomal, partially purified | peroxynitrite-dependent nitration of an over-expressed and partially purified human prostacyclin synthase

inhibition at 50 µM [1] [%]	pEC50 [2]	SMILES
20	–	S=c1[nH]c(=S)c2[nH]cnc2[nH]1 [2,6-Dithiopurine]
20	–	S=c1cc[nH]c(=S)[nH]1 [2,6-Dithiopyrimidine]
–	5.30	O=NOO [peroxynitrite]
